Data taken from article PMC8607231, “Generation of KS-133 as a Novel Bicyclic Peptide with a Potent and Selective VIPR2 Antagonist Activity that Counteracts Cognitive Decline in a Mouse Model of Psychiatric Disorders” (Frontiers in Pharmacology, 2021).
Where a SMILES comes first, the peptide text is derived from it. Bridges are numbered along the chain shown (N, C = ends).

Experiment: Plasma and brain levels after intravenous administration
Format: in vivo
Details: mouse
Source text: Generally, drug discovery to target molecules in the CNS is harder than in peripheral tissues. Molecule exchange between the periphery and CNS is strictly restricted by the blood−brain barrier (BBB), especially molecules with a molecular weight (MW) of >400 g/mol. In addition to the MW limit, CNS drugs need to have high lipophilicity to cross the BBB ([McMartin et al., 1987]; [Dong, 2018]), but high lipophilic small molecules likely have undesirable side effects by potential off-target binding. Conversely, the MW of KS-133 was 1558 g/mol, which would avoid off-target side effects by VIPR2-selective binding but would make it difficult to cross the BBB. […] However, it was unclear whether the alterations in CREB phosphorylation were due to directly effects of s.c. injection of Ro 25-1553 and KS-133 on VIPR2 in the CNS. […] Intranasal administration is an attractive route for drug delivery to the brain because it allows direct transport of drugs from the nasal cavity to the brain parenchyma by bypassing systemic circulation ([Thorne et al., 2004]; [Lochhead and Thorne, 2012]; [Iwasaki et al., 2019]). It has been reported that about 1% of an administered molecule enters the CNS without crossing the BBB by administration to the nasal cavity, even those with a MW of 1000 g/mol ([McMartin et al., 1987]; [Dong, 2018]). There are some reports that the BBB becomes leaky in patients with psychiatric disorders such as schizophrenia and ASD ([Patel and Frey, 2015]; [Najjar et al., 2017]; [Kealy et al., 2020]). […] In the future, to clarify the mechanism and routes of how administered KS-133 targets the CNS, detailed pharmacokinetic studies of KS-133 in healthy mice and disease model mice using s.c., i.n., and intravenous administrations will be needed.

tissue level at time molar at 80 min (brain, adult male ICR mice, 80 min after intravenous KS-133 1 nmol/g, n = 3, mean ± S.E.M., unpublished data): 0.035 ± 0.005 nmol/g
Plasma elimination half-life (in vivo): less than an hour
level at time molar at 80 min (plasma, adult male ICR mice, 80 min after intravenous KS-133 1 nmol/g, n = 3, mean ± S.E.M., unpublished data): 2780 ± 80 nM
SMILES: CC[C@H](C)[C@H](NC(=O)[C@H](CC(C)C)NC(=O)[C@@H]1CC(=O)NCCCC[C@@H]2NC(=O)[C@@H]3CCCN3C(=O)[C@H](CC(C)C)NC(=O)[C@H](Cc3ccc(O)cc3)NC(=O)[C@@H]3CCCN3C(=O)[C@@H]3CCCN3C(=O)[C@@H](NC(C)=O)CSSC[C@H](NC(=O)[C@H](CC(C)C)NC(=O)[C@H](Cc3ccc(O)cc3)NC2=O)C(=O)N1)C(N)=O [KS-133, Ac-c[Cys-Pro-Pro-Tyr-Leu-Pro-c(Lys-Tyr-Leu-Cys]-Asp)-Leu-Ile-NH2] (Ac-CPPYLPKYLCDLI-NH2; disulfide 1-10; lactam 7-11)
